Tests used:
Experiment in all cases: relative viability (nuclei count vs DMSO), 5 days (fraction); higher = more cells survive
Ibrutinib + Luminespib = compound: C=CC(=O)N1CCC[C@@H](n2nc(-c3ccc(Oc4ccccc4)cc3)c3c(N)ncnc32)C1 [Ibrutinib] + CCNC(=O)c1noc(-c2cc(C(C)C)c(O)cc2O)c1-c1ccc(CN2CCOCC2)cc1 [Luminespib] (partner 0.01 µM)
Procedure, shortened: (§1)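 Relative viability divides the nuclei count in treated wells by that in vehicle wells. Lung cancer cell lines were seeded in 1536-well plates, dosed by pin tool the next day, and fixed and stained after 5 days in one step with final 0.05% Triton X-100, 1% formaldehyde and 1 ug/ml Hoechst. Dosing was a single drug or a fixed anchor-drug dose plus five library-drug doses (not always all listed) in √10 steps, and values are medians of duplicate plates imaged at 4×.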

BMX-IN-1 + Tozasertib = compound: C=CC(=O)Nc1cc(-n2c(=O)ccc3cnc4ccc(-c5ccc(NS(C)(=O)=O)cc5)cc4c32)ccc1C [BMX-IN-1] + Cc1cc(Nc2cc(N3CCN(C)CC3)nc(Sc3ccc(NC(=O)C4CC4)cc3)n2)n[nH]1 [Tozasertib] (partner 0.1 µM)
Procedure, shortened: as §1

BMX-IN-1 + Phenformin = compound: C=CC(=O)Nc1cc(-n2c(=O)ccc3cnc4ccc(-c5ccc(NS(C)(=O)=O)cc5)cc4c32)ccc1C [BMX-IN-1] + N=C(N)NC(=N)NCCc1ccccc1 [Phenformin] (partner 250 µM)
Procedure, shortened: as §1

BMX-IN-1 + AZD7762 = compound: C=CC(=O)Nc1cc(-n2c(=O)ccc3cnc4ccc(-c5ccc(NS(C)(=O)=O)cc5)cc4c32)ccc1C [BMX-IN-1] + NC(=O)Nc1cc(-c2cccc(F)c2)sc1C(=O)N[C@H]1CCCNC1 [AZD7762] (partner 0.2 µM)
Procedure, shortened: as §1

Cell Line | relative viability (Ibrutinib + Luminespib; first compound 0.005 µM) | relative viability (Ibrutinib + Luminespib; first compound 0.01581 µM) | relative viability (Ibrutinib + Luminespib; first compound 0.05 µM) | relative viability (Ibrutinib + Luminespib; first compound 0.1581 µM) | relative viability (Ibrutinib + Luminespib; first compound 0.5 µM) | relative viability (BMX-IN-1 + Tozasertib; first compound 0.02 µM) | relative viability (BMX-IN-1 + Tozasertib; first compound 0.2 µM) | relative viability (BMX-IN-1 + Tozasertib; first compound 0.6325 µM) | relative viability (BMX-IN-1 + Tozasertib; first compound 2 µM) | relative viability (BMX-IN-1 + Phenformin; first compound 0.02 µM) | relative viability (BMX-IN-1 + Phenformin; first compound 0.2 µM) | relative viability (BMX-IN-1 + Phenformin; first compound 0.6325 µM) | relative viability (BMX-IN-1 + Phenformin; first compound 2 µM) | relative viability (BMX-IN-1 + AZD7762; first compound 0.02 µM) | relative viability (BMX-IN-1 + AZD7762; first compound 0.2 µM) | relative viability (BMX-IN-1 + AZD7762; first compound 0.6325 µM) | relative viability (BMX-IN-1 + AZD7762; first compound 2 µM)
NCI-H1944 | 0.649 | 0.57 | 0.714 | 0.669 | 0.536 | 0.279 | 0.254 | 0.236 | 0.244 | 0.2 | 0.219 | 0.234 | 0.205 | 0.479 | 0.661 | 0.52 | 0.578
NCI-H460 | 0.0343 | 0.0329 | 0.0328 | 0.0586 | 0.0349 | 0.525 | 0.796 | 0.531 | 0.569 | 0.917 | 0.576 | 0.677 | 0.609 | 0.725 | 0.566 | 0.768 | 0.735
NCI-H358 | 0.366 | 0.253 | 0.306 | 0.267 | 0.174 | 0.112 | 0.108 | 0.104 | 0.11 | 0.355 | 0.342 | 0.384 | 0.324 | 0.448 | 0.504 | 0.491 | 0.486
NCI-H596 |  | 0.894 | 0.77 | 0.959 | 0.805 | 1.07 | 0.932 | 0.819 | 0.959 | 0.891 | 0.981 | 0.732 | 0.83 | 1.07 | 1.36 | 1.23 | 1.04
NCI-H322M | 0.648 | 0.726 | 0.785 | 0.752 | 0.473 | 0.514 | 0.548 | 0.475 | 0.401 | 0.867 | 0.821 | 0.795 | 0.791 | 0.532 | 0.559 | 0.714 | 0.485
H3255 | 1.13 | 0.945 |  | 1.19 | 0.704 | 0.788 | 0.648 | 0.577 | 0.624 | 0.327 | 0.357 | 0.782 | 0.374 | 0.93 | 0.866 | 1.05 | 0.874
NCI-H2126 | 0.651 | 0.756 | 0.855 | 0.962 | 0.75 | 1.03 | 0.947 | 0.867 | 0.829 | 0.517 | 0.559 | 0.581 | 0.526 | 1.03 | 1.06 | 1.16 | 1.04
NCI-H1993 | 0.607 | 0.78 | 0.824 | 0.689 | 0.605 | 0.624 | 0.652 | 0.585 | 0.498 | 0.438 | 0.525 | 0.453 | 0.492 | 0.907 | 0.926 | 0.706 | 0.724
NCI-H1915 | 0.824 | 0.85 | 0.819 | 0.857 | 0.69 | 0.438 | 0.586 | 0.504 | 0.445 | 0.32 | 0.387 | 0.389 | 0.37 | 0.774 | 0.786 | 0.806 | 0.675
NCI-H727 |  | 0.597 | 0.282 |  | 0.516 | 0.691 | 0.646 | 0.572 | 0.597 | 0.532 | 0.546 | 0.584 | 0.392 | 0.574 | 0.585 | 0.635 | 0.541
NCI-H1734 | 0.208 | 0.189 | 0.235 | 0.188 | 0.175 | 0.292 | 0.285 | 0.256 | 0.229 | 0.341 | 0.431 | 0.461 | 0.415 | 0.683 | 0.623 | 0.542 | 0.669
A-427 | 1.09 | 0.85 | 0.832 | 1.1 | 1.01 | 0.183 | 0.182 | 0.21 | 0.2 | 0.192 | 0.324 | 0.348 | 0.37 | 0.796 | 1.14 | 0.84 | 0.806
NCI-H2170 | 0.435 | 0.425 | 0.446 | 0.741 | 0.344 | 0.771 | 0.779 | 0.625 | 0.777 | 0.375 | 0.4 | 0.415 | 0.416 | 0.945 | 0.98 | 1.03 | 0.928
NCI-H1437 | 1.13 | 1.16 | 1.11 | 1.14 | 1.12 | 0.497 | 0.43 | 0.38 | 0.414 | 0.281 | 0.342 | 0.334 | 0.326 | 1.26 | 1.26 | 1.11 | 1.11
PC-3 [JPC-3] | 0.65 | 0.64 | 0.74 | 0.806 | 0.505 | 1.02 | 1.02 | 1.08 | 0.951 | 0.459 | 0.488 | 0.483 | 0.491 | 0.886 | 0.925 | 0.918 | 0.847
NCI-H2342 | 0.719 | 0.608 | 0.707 | 0.655 | 0.497 | 0.454 | 0.526 | 0.494 | 0.422 | 0.651 | 0.7 | 0.55 | 0.617 | 0.454 | 0.484 | 0.492 | 0.447
